Like-named read-outs stand apart in the source and are kept apart here.

The test system of assay [1] is PBL of SLE patients stimulated with human 16/6Id mAb. Format: cell-based. The conditions noted are these: for inhibition of proliferative responses to human 16/6Id mAb: PBL of one SLE patient; for Percent Inhibition of proliferation: highest positive inhibition, peptide 50 or 100 μg/well. As for the experimental part:
Cells were then harvested and radioactivity was counted using a β-counter. Results were expressed as mean counts per minute (cpm) of triplicate cultures. Stimulation indices (the ratio of mean cpm at the optimal concentration of 16/6Id to mean cpm without 16/6Id) were then calculated. A stimulation index (SI)≧2 was considered positive. […] Inhibition of above 50% of the proliferative capacity was considered positive. The Table represents the highest positive inhibition capacity for each peptide. […] Both peptides inhibited the proliferation of PBL of 18/19(95%) of responders tested. It can also be seen in the Table that the magnitudes of inhibitions were similar for both peptides. Thus, it can be concluded that peptides based on CDR1 and CDR3 of the human 16/6Id mAb are efficient inhibitors of the proliferation of PBL of SLE patients to the human 16/6Id mAb.

Assay [2] deals with PBL of SLE patients stimulated with phytohemagglutinin (PHA). The experiment in a line: Proliferation of PBL stimulated with mitogen PHA. It is filed as cell-based, human. The conditions noted are these: PHA 2 μg/ml; PBL of one SLE patient, FIG. 9. As for the experimental part:
To this end the peptides hCDR1 or hCDR3 were added to cultures of PBL of SLE patients that were stimulated with the mitogen phytohemagglutinin (PHA, 2 μg/ml).

Assay [3] deals with IL-2 secretion by PBL of SLE patients. The experiment in a line: Inhibition of IL-2 secretion by PBL stimulated with human 16/6Id mAb (CTLL line). It is filed as cell-based. The protocol:
It was of interest to find out whether the hCDR peptides are capable of inhibiting IL-2 secretion by PBL of SLE patients following stimulation with the human 16/6Id mAb. […] To this end, PBL of SLE patients were incubated with the human 16/6Id mAb in the absence or presence of the peptides hCDR1 or hCDR3. Supernatants of the cultures were collected following 48 hours of incubation. Assays to determine levels of IL-2 in the supernatants were performed using the CTLL IL-2 dependent line. Briefly, cells of the CTLL line (2×10^4/well) were incubated in the presence of the different supernatants for 24 hours, followed by the addition of ^3H-thymidine for an additional 18-hour incubation period. Cells were then harvested and radioactivity counted using a β-counter. Results were calculated based on recombinant human IL-2 used as a standard. The ability of the peptides to inhibit the IL-2 secretion of PBL of 23 responders stimulated by the human 16/6 Id was tested. […] Inhibition of proliferative responses of PBL directly correlated with IL-2 inhibition by the CDR-based peptides.

Assay [4] deals with TGF-β secretion by PBL of SLE patients. The experiment in a line: Up-regulation of TGF-β secretion by PBL stimulated with human 16/6Id mAb (ELISA). It is filed as cell-based. The protocol: For this purpose, supernatants were removed from cultures of PBL of various SLE patients following 48 hours incubation with the human 16/6Id mAb in the absence or presence of the peptides hCDR1 or hCDR3. TGF-β was determined by ELISA according to the manufacturer's instructions. Briefly, Maxisorb plates (Nunc) were coated with recombinant human TGFβsRII/Fc chimera (R & D Systems) diluted in PBS (100 ng/ml). After blocking, cell supernatants were added. After 18 hours incubation the detecting biotinylated anti-human TGF-β antibody (R & D Systems) was added. The substrate solution used was the TMB Colour Reagent (Helix Diagnostics) and enzyme activity was evaluated by the MRX ELISA reader using the 570 nm and 630 nm filters.

In assay [5] the test system is antibodies in sera of SLE patients and healthy controls. As to the kind of experiment: ELISA of sera for antibodies binding plate-coated peptides or mAb. Further details: species or system human. The conditions noted are these: plates coated with 10 μg/ml; FIG. 7. As for the experimental part:
Human SLE patients (32 patients) were bled and their sera were tested by ELISA for their ability to bind the peptides Ia, IIa and 111a, a control peptide p195-212 (a myasthogenic peptide described in PCT publication No. WO 94/00148) or mAb 5G12.
Detection of the antibodies was conducted on plates that were coated with 10 μg/ml of peptides Ia, IIa, IIIa, p195-212 or mAb 5G12, in PBS for 2 hr, washed and blocked with 1% ovalbumin in PBS for an additional 2 hr. ELISA was continued as described after blockage in Example 2 of PCT International Publication No. 96/30057, using goat anti-human IgG polyclonal antibody conjugated to peroxidase.

The test system of another assay is PBL from SLE patients. The experiment in a line: Proliferation of PBL in presence of mAb or peptides (3H-thymidine). It is filed as cell-based, human. The protocol: (§1) Peripheral blood lymphocytes (PBL) were isolated from the blood of SLE patients or healthy controls using ficol gradient. Thereafter, the PBL were incubated in the presence of different concentrations of the peptides Ia, IIa or IIIa, or the human 16/6 Id mAb for 24 hr, when a sample was taken for IL-2 measurement. The assay was continued for a total of 7 days, and ^3H-thymidine was added for the last 16 hr. Proliferation was detected by reading the amount of radioactivity incorporated into the DNA of the cells.
(§2) As is seen in Table 14, a lower proportion of the PBL taken from SLE patients reacted to the peptides or to the 16/6 Id mAb, when compared to the healthy controls. The results are expressed in percentage of responder (34% in the first line) and the actual number of patients (11 out of 32: 11/32).

Assay [6] deals with PBL from healthy controls. Described as above. Format: cell-based, human. The protocol: as §1, §2
The next assay concerns PBL of SLE patients. As to the kind of experiment: Production of IL-2 by PBL in presence of mAb or peptides (CTLD cells). Format: cell-based, human. The protocol:
(§3) PBL were isolated from blood of SLE patients or healthy controls using ficol gradient, and were incubated as in Example 11. A sample of 50 μl was removed 24 hr after the assay was started, and incubated in the presence of IL-2 sensitive cells (CTLD) for 24 hr, after which ^3H-thymidine was added for 16 hr, and the plates were harvested and counted on a beta counter.

For another assay, the system named is PBL of healthy controls. Described as above. It is filed as cell-based, human. The protocol: as §3

For the substance “YYCARGLLRGGWNDVDYYGMDV [hCDR3, peptide based on CDR3 of the human 16/6Id mAb]”, the “inhibition of proliferative responses to human 16/6Id mAb” value is “inhibited efficiently” in [1] (FIG. 10) and “did inhibit efficiently” in assay [1] (FIG. 11). Also, the “Percent Inhibition of proliferation” value in [1] (SLE patient Number 1) is less than 50%; in assay [1] (SLE patient Number 2), 75%; in assay [1] (SLE patient Number 3), less than 50%; in assay [1] (SLE patient Number 4), less than 50%; in assay [1] (SLE patient Number 5), 87.5%; in assay [1] (SLE patient Number 6), 80%. The “Percent Inhibition of proliferation” value came to 70.4% in [1] (SLE patient Number 7); 56% in assay [1] (SLE patient Number 8); 65% in assay [1] (SLE patient Number 9); 71.8% in [1] (SLE patient Number 10); 72% in assay [1] (SLE patient Number 11); 86% in assay [1] (SLE patient Number 12). Besides, the “Percent Inhibition of proliferation” value in assay [1] (SLE patient Number 13) is 64%; in assay [1] (SLE patient Number 14), 74%; in assay [1] (SLE patient Number 15) it was 69%; in assay [1] (SLE patient Number 16), 68%; in [1] (SLE patient Number 17), 77.8%; in assay [1] (SLE patient Number 18), less than 50%. Further, the “Percent Inhibition of proliferation” value in [1] (SLE patient Number 19) was determined as 60.8%. The “responders whose PBL proliferation was inhibited (above 50%)” value in [1] (of the 19 responders tested) was found to be 78.9%. The “Percent Inhibition of proliferation, Mean ± SD” value in assay [1] (over patients with positive inhibition (above 50%)) came out at 71.82 ± 8.44%. Further, the “inhibition of proliferative responses to mitogen PHA” value in [2] was “could not inhibit”. In addition, the “patients whose PBL IL-2 secretion was inhibited / tested” value in assay [3] (23 responders) is recorded as 19/23. In addition, in assay [3] (IL-2 secretion with 16/6 Id alone = 100%), the Maximum inhibition % was found to be 78 ± 34%. For the same substance, the “Inhibitory Activity* % (patients with inhibition of 50% or more)” value in assay [3] (PBL of 23 responders) is 83 (19/23) %. Also, the “inhibition of IL-2 secretion” value in assay [3] (PBL of one SLE patient, FIG. 12) turned out to be 100%. In assay [4] (PBL of SLE patients, 48 hours), the “Up-Regulation of TGF-β % (patients)” value is 100 (19/19) %. In assay [4] (PBL of one representative SLE patient, FIG. 13), the “secretion of TGF-β” value is “significant up-regulation”. Moreover, the “Maximum Up-regulation %” value in assay [4] (percent secretion above that in the presence of 16/6 Id alone (= 100%)) is given as 338 ± 242%.

“YYCARFLWEPYAMDYWGQGS (YYCARFLWEPYAMDYWGQGS) [pep IIIa, based on CDR3 of the VH chain of mAb 5G12]”: in assay [5], the “levels of serum antibodies binding the coated antigen, SLE patients versus healthy controls” value (from here on “levels … SLE patients versus healthy controls”) is “significantly higher levels”. Besides, in the assay on PBL from SLE patients, the “number of responders / tested (proliferation)” value is listed as 10/32 and the “percentage of responders (proliferation)” value is given as 31%. Besides, in [6], the “number of responders / tested (proliferation)” value is 15/25 and the “percentage of responders (proliferation)” value is listed as 60%. Also, in the assay with PBL of SLE patients, the “number of responders / tested (IL-2 production)” value is 5/32 and the “percentage of responders (IL-2 production)” value was found to be 16%. In addition, in the assay on PBL of healthy controls, the “number of responders / tested (IL-2 production)” value is listed as 16/25 and the “percentage of responders (IL-2 production)” value is listed as 64%. Also, the “inhibition of proliferative responses to human 16/6Id mAb” value in assay [1] (FIG. 10) is recorded as “did not inhibit”.

Take “TGYYMQWVKQSPEKSLEWIG [pep Ia]”: the “levels … SLE patients versus healthy controls” value in [5] is “significantly higher levels”. In addition, in the assay on PBL from SLE patients, the “number of responders / tested (proliferation)” value was 7/32 and the “percentage of responders (proliferation)” value stood at 21%. Moreover, in [6], the “number of responders / tested (proliferation)” value is 11/25 and the “percentage of responders (proliferation)” value came to 44%. In the assay with PBL of SLE patients, the “number of responders / tested (IL-2 production)” value is on record as 5/32 and the “percentage of responders (IL-2 production)” value is 16%. For the same substance, in the assay on PBL of healthy controls, the “number of responders / tested (IL-2 production)” value was 14/25 and the “percentage of responders (IL-2 production)” value is 56%.

In the case of “EINPSTGGTTYNQKFKAKAT (EINPSTGGTTYNQKFKAKAT) [pep IIa, based on CDR2 of the VH chain of mAb 5G12]”, the “levels … SLE patients versus healthy controls” value in assay [5] was “significantly higher levels”. Moreover, in the assay on PBL from SLE patients, the “number of responders / tested (proliferation)” value was 3/32 and the “percentage of responders (proliferation)” value was 9%. Further, in assay [6], the “number of responders / tested (proliferation)” value was 7/25 and the “percentage of responders (proliferation)” value came out at 28%. In addition, in the assay with PBL of SLE patients, the “number of responders / tested (IL-2 production)” value is given as 3/32. In the assay on PBL of healthy controls, the “number of responders / tested (IL-2 production)” value is given as 8/25 and the “percentage of responders (IL-2 production)” value stood at 32%.

Values taken from US20130023485A1, “PARENTERAL FORMULATIONS OF PEPTIDES FOR THE TREATMENT OF SYSTEMATIC LUPUS ERYTHEMATOSUS” (Teva Pharmaceutical Industries, Ltd., priority 2003, published 2013).
